Test results reported in ChEMBL document CHEMBL3352071, “Benzimidazoles: novel mycobacterial gyrase inhibitors from scaffold morphing” (ACS Med Chem Lett, 2014).
Values after ≈ are worked out from the molar mass of the structure shown.

Columns and labels:
[1] = tested on: Mycobacterium tuberculosis; assay: Antimicrobial activity against Mycobacterium tuberculosis H37Rv ATCC 27294; type: functional
[2] = Inhibition of Mycobacterium tuberculosis H37Rv DNA gyrase A2B2 holoenzyme supercoiling activity using relaxed pBR322 substrate incubated for 90 mins by ethidium bromide staining based gel electrophoresis method
[3] = Octanol-water partition coefficient, logD of the compound at pH 7.4 by shake-flask method; type: physicochemical
[4] = biological target: DNA gyrase subunit B (Mycobacterium smegmatis, UniProt P0C559); assay: Inhibition of Mycobacterium smegmatis GyrB ATPase activity; parameters: species or system Mycolicibacterium smegmatis
[5] = tested on: THP-1; assay: Cytotoxicity against human THP1 cells; type: cell-based
[6] = biological target: Voltage-gated inwardly rectifying potassium channel KCNH2 (Homo sapiens, UniProt Q12809)
Description: Inhibition of human ERG by electrophysiology assay

[7] = Oral bioavailability in Wistar rat at 10 mg/kg; type: ADME, organism-based; conditions: in vivo
[8] = Clearance in Wistar rat at 1 mg/kg, iv; type: ADME, organism-based; parameters: dose 1 mg/kg, route intravenous; conditions: in vivo
[9] = Elimination half life in Wistar rat at 1 mg/kg, iv; type: ADME, organism-based; parameters: dose 1 mg/kg, route intravenous; conditions: in vivo, read-out: beta t1/2 (converted)
[10] = Solubility of the compound; type: physicochemical
[11] = biological target: T1, Cytochrome P450 1A2 (Homo sapiens, UniProt P05177); assay: Inhibition of CYP1A2 (unknown origin); type: ADME
T1 sequence (P05177 whole entry): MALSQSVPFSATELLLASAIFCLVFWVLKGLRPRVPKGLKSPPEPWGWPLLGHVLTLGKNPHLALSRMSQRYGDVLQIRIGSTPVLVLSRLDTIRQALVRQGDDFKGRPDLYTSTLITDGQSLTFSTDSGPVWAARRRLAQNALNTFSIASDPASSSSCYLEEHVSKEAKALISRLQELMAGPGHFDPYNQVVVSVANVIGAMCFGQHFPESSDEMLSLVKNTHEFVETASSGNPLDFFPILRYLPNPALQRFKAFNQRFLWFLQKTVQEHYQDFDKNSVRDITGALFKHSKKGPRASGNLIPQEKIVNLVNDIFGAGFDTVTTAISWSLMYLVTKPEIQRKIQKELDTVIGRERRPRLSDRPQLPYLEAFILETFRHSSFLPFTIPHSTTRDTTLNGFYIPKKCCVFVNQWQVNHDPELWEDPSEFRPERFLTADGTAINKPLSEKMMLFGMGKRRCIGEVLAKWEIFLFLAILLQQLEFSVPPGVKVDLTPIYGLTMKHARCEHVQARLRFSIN

[12] = biological target: Cytochrome P450 3A4 (Homo sapiens, UniProt P08684); assay: Inhibition of CYP3A4 (unknown origin); type: ADME
[13] = Permeability from apical to basolateral side in human Caco2 cells; type: ADME, cell-based; conditions: Caco-2, read-out: permeability
[14] = biological target: Cytochrome P450 2C9 (Homo sapiens, UniProt P11712); assay: Inhibition of CYP2C9 (unknown origin); type: ADME
[15] = biological target: Cytochrome P450 2C19 (Homo sapiens, UniProt P33261); assay: Inhibition of CYP2C19 (unknown origin); type: ADME
[16] = Volume of distribution at steady state in Wistar rat at 1 mg/kg, iv; type: ADME, organism-based; parameters: dose 1 mg/kg, route intravenous; conditions: in vivo, read-out: Vdss
[17] = AUC (0 to infinity) in Wistar rat at 10 mg/kg, po; type: ADME, organism-based; parameters: time infinity, dose 10 mg/kg, route oral; conditions: plasma
[18] = Permeability from basolateral to apical side in human Caco2 cells; type: ADME, cell-based; conditions: Caco-2, read-out: permeability
[19] = biological target: Cytochrome P450 2D6 (Homo sapiens, UniProt P10635); assay: Inhibition of CYP2D6 (unknown origin); type: ADME
[20] = AUC (0 to infinity) in Wistar rat at 1 mg/kg, iv; type: ADME, organism-based; parameters: time infinity, dose 1 mg/kg, route intravenous; conditions: plasma

Voltage-gated inwardly rectifying potassium channel KCNH2, sequence (Q12809 whole entry): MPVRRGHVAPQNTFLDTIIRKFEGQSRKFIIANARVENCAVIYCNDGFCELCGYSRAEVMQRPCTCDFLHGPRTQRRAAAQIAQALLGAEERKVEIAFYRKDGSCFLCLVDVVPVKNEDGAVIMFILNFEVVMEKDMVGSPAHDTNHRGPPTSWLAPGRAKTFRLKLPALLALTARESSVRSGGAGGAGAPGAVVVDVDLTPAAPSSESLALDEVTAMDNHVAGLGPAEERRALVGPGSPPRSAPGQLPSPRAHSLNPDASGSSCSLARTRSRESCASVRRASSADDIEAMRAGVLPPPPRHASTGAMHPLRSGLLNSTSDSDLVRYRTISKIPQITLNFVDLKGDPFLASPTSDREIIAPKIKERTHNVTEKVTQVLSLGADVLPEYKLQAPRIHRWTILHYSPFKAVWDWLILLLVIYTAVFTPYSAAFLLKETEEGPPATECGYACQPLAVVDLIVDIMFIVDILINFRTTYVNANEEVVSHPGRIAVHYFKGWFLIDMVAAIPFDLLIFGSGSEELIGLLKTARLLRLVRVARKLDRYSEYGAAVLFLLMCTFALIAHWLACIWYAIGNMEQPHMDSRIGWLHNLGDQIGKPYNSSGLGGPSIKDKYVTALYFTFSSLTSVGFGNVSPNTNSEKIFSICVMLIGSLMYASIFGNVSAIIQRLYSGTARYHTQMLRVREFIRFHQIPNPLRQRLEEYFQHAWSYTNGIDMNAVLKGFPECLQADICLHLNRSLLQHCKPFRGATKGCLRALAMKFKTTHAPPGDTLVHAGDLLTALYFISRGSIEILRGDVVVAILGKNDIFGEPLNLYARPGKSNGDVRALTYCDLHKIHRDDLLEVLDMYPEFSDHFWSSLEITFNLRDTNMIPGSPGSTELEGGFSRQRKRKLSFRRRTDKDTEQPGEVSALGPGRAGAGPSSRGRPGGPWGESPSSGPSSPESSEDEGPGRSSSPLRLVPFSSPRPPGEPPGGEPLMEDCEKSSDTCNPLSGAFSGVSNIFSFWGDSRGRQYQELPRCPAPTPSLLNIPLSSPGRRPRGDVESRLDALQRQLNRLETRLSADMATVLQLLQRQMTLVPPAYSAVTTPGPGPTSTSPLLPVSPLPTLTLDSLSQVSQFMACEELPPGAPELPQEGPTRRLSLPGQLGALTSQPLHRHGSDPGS
DNA gyrase subunit B, sequence (P0C559 whole entry): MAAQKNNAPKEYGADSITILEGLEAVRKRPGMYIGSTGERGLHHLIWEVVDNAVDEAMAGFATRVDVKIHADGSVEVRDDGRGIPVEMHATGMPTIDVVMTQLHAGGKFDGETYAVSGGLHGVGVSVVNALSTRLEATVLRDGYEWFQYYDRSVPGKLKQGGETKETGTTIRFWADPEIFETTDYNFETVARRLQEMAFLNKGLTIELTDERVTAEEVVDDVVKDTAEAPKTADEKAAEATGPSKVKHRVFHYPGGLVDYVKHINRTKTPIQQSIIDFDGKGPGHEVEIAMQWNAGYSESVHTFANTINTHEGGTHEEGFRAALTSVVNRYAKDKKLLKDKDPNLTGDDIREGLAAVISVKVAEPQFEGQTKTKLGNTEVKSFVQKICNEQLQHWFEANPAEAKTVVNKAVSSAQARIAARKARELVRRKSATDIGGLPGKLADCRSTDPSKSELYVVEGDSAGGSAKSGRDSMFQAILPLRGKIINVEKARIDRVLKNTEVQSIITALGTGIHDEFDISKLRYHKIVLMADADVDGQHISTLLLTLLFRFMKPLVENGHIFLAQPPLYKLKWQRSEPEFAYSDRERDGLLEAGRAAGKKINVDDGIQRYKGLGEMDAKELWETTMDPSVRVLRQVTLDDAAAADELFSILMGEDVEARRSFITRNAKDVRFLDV
Cytochrome P450 3A4, sequence (P08684 whole entry): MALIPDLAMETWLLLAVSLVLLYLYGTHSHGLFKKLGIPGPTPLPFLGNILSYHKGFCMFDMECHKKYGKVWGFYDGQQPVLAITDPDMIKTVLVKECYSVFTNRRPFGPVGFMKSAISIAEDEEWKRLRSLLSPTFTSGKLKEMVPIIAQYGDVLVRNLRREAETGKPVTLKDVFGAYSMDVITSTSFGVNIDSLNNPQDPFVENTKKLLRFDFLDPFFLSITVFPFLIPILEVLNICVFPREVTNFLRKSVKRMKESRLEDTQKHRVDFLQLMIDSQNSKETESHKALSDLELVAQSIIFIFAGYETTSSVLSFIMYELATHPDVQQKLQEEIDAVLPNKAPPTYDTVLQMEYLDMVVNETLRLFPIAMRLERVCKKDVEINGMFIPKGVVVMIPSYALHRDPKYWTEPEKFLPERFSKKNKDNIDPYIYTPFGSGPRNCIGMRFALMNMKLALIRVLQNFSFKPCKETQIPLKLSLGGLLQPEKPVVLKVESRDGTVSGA
Cytochrome P450 2C19, sequence (P33261 whole entry): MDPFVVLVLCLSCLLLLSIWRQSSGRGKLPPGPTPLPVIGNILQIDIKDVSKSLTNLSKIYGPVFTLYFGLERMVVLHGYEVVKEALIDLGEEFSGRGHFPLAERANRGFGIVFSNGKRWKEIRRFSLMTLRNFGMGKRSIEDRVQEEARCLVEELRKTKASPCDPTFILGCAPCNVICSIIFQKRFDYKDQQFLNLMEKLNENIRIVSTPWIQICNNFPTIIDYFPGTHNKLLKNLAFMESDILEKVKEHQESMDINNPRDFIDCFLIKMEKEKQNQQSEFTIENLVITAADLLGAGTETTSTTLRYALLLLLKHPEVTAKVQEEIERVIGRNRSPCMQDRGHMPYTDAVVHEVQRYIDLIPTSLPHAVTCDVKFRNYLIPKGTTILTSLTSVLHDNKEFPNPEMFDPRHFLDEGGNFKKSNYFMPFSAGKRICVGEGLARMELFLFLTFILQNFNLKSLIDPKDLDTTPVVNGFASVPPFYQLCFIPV
Cytochrome P450 2D6, sequence (P10635 whole entry): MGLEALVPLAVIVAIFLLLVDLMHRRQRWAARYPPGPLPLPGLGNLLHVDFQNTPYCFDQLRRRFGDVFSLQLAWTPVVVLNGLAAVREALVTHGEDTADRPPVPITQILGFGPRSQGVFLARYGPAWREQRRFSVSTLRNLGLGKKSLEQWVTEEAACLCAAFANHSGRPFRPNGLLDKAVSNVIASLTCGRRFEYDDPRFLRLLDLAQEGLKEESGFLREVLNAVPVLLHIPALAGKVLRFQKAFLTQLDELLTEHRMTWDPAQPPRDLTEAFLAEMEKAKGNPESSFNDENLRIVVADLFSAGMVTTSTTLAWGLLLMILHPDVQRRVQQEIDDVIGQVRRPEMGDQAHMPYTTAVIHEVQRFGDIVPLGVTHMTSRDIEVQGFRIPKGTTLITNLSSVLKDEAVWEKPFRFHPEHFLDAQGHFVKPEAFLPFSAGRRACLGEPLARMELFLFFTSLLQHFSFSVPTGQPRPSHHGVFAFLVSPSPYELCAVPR
Cytochrome P450 2C9, sequence (P11712 whole entry): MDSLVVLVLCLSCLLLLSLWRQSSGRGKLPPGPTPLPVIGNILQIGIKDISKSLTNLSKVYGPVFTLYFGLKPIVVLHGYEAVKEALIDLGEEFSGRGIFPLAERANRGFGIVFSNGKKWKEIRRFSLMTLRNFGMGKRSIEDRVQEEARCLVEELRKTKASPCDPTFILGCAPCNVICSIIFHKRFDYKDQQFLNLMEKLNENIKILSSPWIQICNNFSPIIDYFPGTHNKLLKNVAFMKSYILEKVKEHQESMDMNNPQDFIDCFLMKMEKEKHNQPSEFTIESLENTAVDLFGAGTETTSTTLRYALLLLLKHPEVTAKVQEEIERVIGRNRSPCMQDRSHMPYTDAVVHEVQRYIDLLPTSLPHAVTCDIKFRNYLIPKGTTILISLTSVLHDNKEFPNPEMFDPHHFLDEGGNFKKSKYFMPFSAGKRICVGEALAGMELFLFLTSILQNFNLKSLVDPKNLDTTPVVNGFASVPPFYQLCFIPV

Row | Compound | MIC [1] [µM] | logD [3] | IC50 [6] [µM] | also measured
1 | N#Cc1ccc2ccc(=O)n(CCN3CCC(NCc4ccc5c(n4)NC(=O)CO5)CC3)c2c1 | 0.19 (≈ 0.0871 µg/mL) |  |  | IC50 [2]: 0.11 µM
2 | COc1cnc2ccc(=O)n(CCN3CCC(C4C(=O)Nc5ccc(Cl)cc54)CC3)c2c1 (stereo not drawn) | 100 (≈ 45.3 µg/mL) | 2.8 | 4.8 | IC50 [4]: > 100 µM; IC50 [5]: > 50 µM; IC50 [2]: > 50 µM
3 | COc1cnc2ccc(=O)n(CCN3CCC(c4nc5cc(C(F)(F)F)ccc5[nH]4)CC3)c2c1 | 0.19 (≈ 0.0896 µg/mL) | 4 |  | IC50 [4]: > 100 µM; IC50 [5]: > 50 µM
4 | COc1cnc2ccc(=O)n(CCN3CCN(c4nc5cc(C(F)(F)F)ccc5[nH]4)CC3)c2c1 | 3.13 (≈ 1.48 µg/mL) | 2.8 | 10 | 
5 | COc1cnc2ccc(=O)n(CCN3CCN(c4nc5ccccc5[nH]4)CC3)c2c1 | 100 (≈ 40.4 µg/mL) | 2.4 | 7 | 
6 | O=c1ccc2ncc(F)cc2n1CCN1CCN(c2nc3cc(C(F)(F)F)ccc3[nH]2)CC1 | 15 (≈ 6.91 µg/mL) | 3.7 |  | 
7 | O=c1ccc2ncc(F)cc2n1CCN1CCC(c2nc3cc(C(F)(F)F)ccc3[nH]2)CC1 | 0.78 (≈ 0.358 µg/mL) |  |  | 
8 | N#Cc1ccc2[nH]c(C3CCN(CCn4c(=O)ccc5ncc(F)cc54)CC3)nc2c1 | 50 (≈ 20.8 µg/mL) |  |  | 
9 | COc1cnc2ccc(=O)n(CCN3CCC(c4nc5cc(Cl)ccc5[nH]4)CC3)c2c1 | 0.25 (≈ 0.109 µg/mL) | 3.6 |  | 
10 | COc1cnc2ccc(=O)n(CCN3CCC(c4nc5cc(C#N)ccc5[nH]4)CC3)c2c1 | 3.15 (≈ 1.35 µg/mL) | 2.4 |  | 
11 | COc1cnc2ccc(=O)n(CCN3CCC(c4nc5cc(Cl)c(F)cc5[nH]4)CC3)c2c1 | 0.06 (≈ 0.0274 µg/mL) | 4 |  | IC50 [2]: 2 µM
12 | COc1cnc2ccc(=O)n(CCN3CCC(c4nc5cc(Cl)c(C)cc5[nH]4)CC3)c2c1 | 0.13 (≈ 0.0588 µg/mL) | 3.8 |  | 
13 | Cc1cc2[nH]c(C3CCN(CCn4c(=O)ccc5ncc(F)cc54)CC3)nc2cc1Cl | 1.56 (≈ 0.686 µg/mL) | 3.7 | 1.2 | 
14 | COc1ccc2ncc(=O)n(CCN3CCC(c4nc5cc(Cl)c(C)cc5[nH]4)CC3)c2c1 | 0.13 (≈ 0.0588 µg/mL) |  |  | 
15 | COc1cnc2ncc(=O)n(CCN3CCC(c4nc5cc(Cl)c(C)cc5[nH]4)CC3)c2c1 | 0.39 (≈ 0.177 µg/mL) | 3.5 | 10 | 
16 | Cc1cc2[nH]c(C3CCN(CCn4c(=O)ccc5ncc(F)cc54)CC3)nc2cc1C#N | 3.15 (≈ 1.36 µg/mL) |  |  | 
17 | COc1cnc2ccc(=O)n(CCN3CCC(c4nc5cc(C#N)c(C)cc5[nH]4)CC3)c2c1 | 0.19 (≈ 0.0841 µg/mL) | 2.8 |  | bioavailability [7]: 1.1%; clearance [8]: 35.5 mL/min/kg; half-life [9]: 36 min; solubility [10]: 2.1 µM (≈ 0.929 µg/mL); IC50 [11]: > 30 µM; IC50 [12]: 9.4 µM; Papp A→B [13]: 0.4 ×10⁻⁶ cm/s; IC50 [14]: > 30 µM; IC50 [15]: > 30 µM; Vd [16]: 1.01 L/kg; AUC(0-inf) [17]: 20 ng·h/mL; Papp B→A [18]: 28.1 ×10⁻⁶ cm/s; IC50 [19]: 28 µM; IC50 [2]: 4.3 µM; AUC(0-inf) [20]: 470 ng·h/mL
18 | COc1cnc2ccc(=O)n(CCN3CCN(c4nc5cc(C#N)c(C)cc5[nH]4)CC3)c2c1 | 0.78 (≈ 0.346 µg/mL) | 3.2 | > 33 | bioavailability [7]: 3.3%; clearance [8]: 32.2 mL/min/kg; half-life [9]: 48 min; solubility [10]: 3 µM (≈ 1.33 µg/mL); IC50 [11]: > 30 µM; IC50 [12]: 20 µM; Papp A→B [13]: 1.5 ×10⁻⁶ cm/s; IC50 [14]: > 30 µM; IC50 [15]: > 30 µM; Vd [16]: 1.54 L/kg; AUC(0-inf) [17]: 160 ng·h/mL; Papp B→A [18]: 24.1 ×10⁻⁶ cm/s; IC50 [19]: 20 µM; AUC(0-inf) [20]: 520 ng·h/mL
19 | N#Cc1ccc2[nH]c(C3CCN(CCn4c(=O)ccc5ncc(Oc6cccnc6)cc54)CC3)nc2c1 | 3.13 (≈ 1.54 µg/mL) | 2.9 |  | 
20 | N#Cc1ccc2[nH]c(C3CCN(CCn4c(=O)ccc5ncc(Oc6ccc(S(N)(=O)=O)cc6)cc54)CC3)nc2c1 | 0.78 (≈ 0.444 µg/mL) | 2.2 | > 33 | 
21 | NS(=O)(=O)c1ccc(Oc2cnc3ccc(=O)n(CCN4CCC(c5nc6cc(C(F)(F)F)ccc6[nH]5)CC4)c3c2)cc1 | 0.19 (≈ 0.116 µg/mL) | 2.4 | > 33 | IC50 [2]: 1.9 µM
22 | COc1cnc2ccc(=O)n(CCN3CCC(c4c[nH]c5ccc(C#N)cc45)CC3)c2c1 | 100 (≈ 42.8 µg/mL) | 3.3 | 2 | IC50 [4]: > 100 µM; IC50 [5]: > 50 µM; IC50 [2]: > 50 µM
23 | COc1cnc2ccc(=O)n(CCN3CCC(c4c[nH]c5cc(C(F)(F)F)ccc45)CC3)c2c1 | 50 (≈ 23.5 µg/mL) | 4 |  | IC50 [4]: > 100 µM; IC50 [5]: > 50 µM; IC50 [2]: > 50 µM
24 | O=c1ccc2ncc(F)cc2n1CCN1CCC(NCc2ccc(C(F)(F)F)nc2)CC1 | 0.19 (≈ 0.0854 µg/mL) |  |  | IC50 [2]: 0.25 µM
25 | O=C(O)c1cn(C2CC2)c2cc(N3CCNCC3)c(F)cc2c1=O [CIPROFLOXACIN] | 0.5 (≈ 0.166 µg/mL) |  |  | 
26 | NNC(=O)c1ccncc1 [ISONIAZID] | 0.06 (≈ 0.00823 µg/mL) |  |  | 
27 | COc1c(N2C[C@@H]3CCCN[C@@H]3C2)c(F)cc2c(=O)c(C(=O)O)cn(C3CC3)c12 [MOXIFLOXACIN] | 0.13 (≈ 0.0522 µg/mL) |  |  | 
